Among the data in US12077503B2, “Substituted cyclic amides and their use as herbicides” (FMC CORPORATION, priority 2015, dated 2024) are pest or weed control, Corn plant response rating (crop injury, 0 = no effect, 100 = complete kill) and plant injury values, retold here.

Common to all, as to format: in vivo
The subject of one assay is Kochia (Kochia scoparia). Nature of the assay: Test A preemergence. As to conditions: Bassia scoparia, pre-emergence, 240 h; for pest or weed control at 125 g/ha: 125 g ai/ha; for pest or weed control at 500 g/ha: 500 g ai/ha. Put shortly: (§1)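 Greenhouse, ~10 d after spray; visual injury vs untreated controls, 0 = no effect, 100 = complete control. Preemergence: directed soil spray over planted seeds. Postemergence: plants 2–10 cm, 1–2 leaf stage. Loam/sand blend. Compound in non-phytotoxic solvent with surfactant.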

The test system of assay [1] is barnyardgrass (Echinochloa crus-galli). Nature of the assay: Test A preemergence. Particulars: Echinochloa crus-galli, pre-emergence, 240 h; for pest or weed control at 125 g/ha: 125 g ai/ha; for pest or weed control at 500 g/ha: 500 g ai/ha. Put shortly: as §1
In assay [2] the test system is giant foxtail (Setaria faberii). Nature of the assay: Test A preemergence. As to conditions: Setaria faberi, pre-emergence, 240 h; for pest or weed control at 125 g/ha: 125 g ai/ha; for pest or weed control at 500 g/ha: 500 g ai/ha. Put shortly:
as §1

Assay [3] relates to pigweed (Amaranthus retroflexus). Nature of the assay: Test A preemergence. Particulars: Amaranthus retroflexus, pre-emergence, 240 h; for pest or weed control at 125 g/ha: 125 g ai/ha; for pest or weed control at 500 g/ha: 500 g ai/ha.
Assay [4] concerns ragweed (common ragweed, Ambrosia elatior). Nature of the assay: Test A preemergence. Particulars: Ambrosia artemisiifolia, pre-emergence, 240 h; for pest or weed control at 125 g/ha: 125 g ai/ha; for pest or weed control at 500 g/ha: 500 g ai/ha. Put shortly:
as §1

Assay [5] relates to ryegrass, Italian (Italian ryegrass, Lolium multiflorum). Nature of the assay: Test A preemergence. As to conditions: Lolium multiflorum, pre-emergence, 240 h; for pest or weed control at 125 g/ha: 125 g ai/ha; for pest or weed control at 500 g/ha: 500 g ai/ha. In short, it runs like this: as §1
Assay [6] concerns Galium (catchweed bedstraw, Galium aparine). Nature of the assay: Test A postemergence. Particulars: Galium, post-emergence, 240 h; for pest or weed control at 125 g/ha: 125 g ai/ha. In short, it runs like this: as §1
The test system of assay [7] is barnyardgrass (Echinochloa crus-galli). Nature of the assay: Test A postemergence. Particulars: Echinochloa crus-galli, post-emergence, 240 h; for pest or weed control at 125 g/ha: 125 g ai/ha. In short, it runs like this:
as §1

The next assay concerns corn (Zea mays). Nature of the assay: Test A postemergence. Particulars: Zea mays, post-emergence, 240 h. In short, it runs like this: as §1
In assay [8] the test system is ragweed (common ragweed, Ambrosia elatior). Nature of the assay: Test A postemergence. As to conditions: Ambrosia artemisiifolia, post-emergence, 240 h; for pest or weed control at 125 g/ha: 125 g ai/ha. Put shortly:
as §1

In assay [9] the test system is barnyardgrass (Echinochloa crus-galli). Nature of the assay: Test B flooded paddy test. Particulars: Echinochloa crus-galli, 250 g ai/ha, Flood, read-out: Barnyardgrass plant response rating. In short, it runs like this: (§2)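 Greenhouse paddy pots with 2-leaf stage plants received compound by direct addition to floodwater 3 cm deep, kept at that level. Scored visually at 13–15 d versus controls (0 no effect; 100 complete control).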

Assay [10] concerns ducksalad (Heteranthera limosa). Nature of the assay: Test B flooded paddy test. Particulars: Heteranthera limosa, 250 g ai/ha, Flood, read-out: Ducksalad plant response rating. In short, it runs like this:
as §2

The subject of a further assay is rice (Oryra sativa). Nature of the assay: Test B flooded paddy test. As to conditions: Oryza sativa, 250 g ai/ha, Flood, read-out: Rice plant response rating. Put shortly:
as §2

Assay [11] relates to sedge, umbrella (small-flower umbrella sedge, Cyperus difformis). Nature of the assay: Test B flooded paddy test. As to conditions: Cyperus difformis, 250 g ai/ha, Flood, read-out: Sedge, Umbrella plant response rating. In short, it runs like this:
as §2

Setting [12] is: 0 to 100 scale where 0 is no effect and 100 is complete control.
Where [13] appears, read: scale of 0 to 100 where 0 is no effect and 100 is complete control.

The structures appear in SMILES notation. Like-named read-outs stand apart in the source and are kept apart here.

In the case of `Cc1cc([C@H]2CN(C)C(=O)[C@@H]2C(=O)Nc2cccc(F)c2F)cc(C)c1Br` [Compound 1024], the pest or weed control at 125 g/ha in the assay on Kochia (Kochia scoparia) (Preemergence, visual injury rating after approximately 10 d, read-out: Kochia plant response rating (0 to 100 scale, 0 is no effect, 100 is complete control)) amounted to 30%; in [1] (Preemergence, visual injury rating after approximately 10 d, read-out: Barnyardgrass plant response rating (0 to 100 scale, 0 is no effect, 100 is complete control)), 70%; in [2] (Preemergence, visual injury rating after approximately 10 d, read-out: Foxtail, Giant plant response rating (0 to 100 scale, 0 is no effect, 100 is complete control)) it was 90%; in [3] (Preemergence, visual injury rating after approximately 10 d, read-out: Pigweed plant response rating (0 to 100 scale, 0 is no effect, 100 is complete control)), 30%; in assay [4] (Preemergence, visual injury rating after approximately 10 d, read-out: Ragweed plant response rating (0 to 100 scale, 0 is no effect, 100 is complete control)) it was 0%; in assay [5] (Preemergence, visual injury rating after approximately 10 d, read-out: Ryegrass, Italian plant response rating (0 to 100 scale, 0 is no effect, 100 is complete control)), 0%. Besides, the pest or weed control at 125 g/ha came to 60% in assay [6] (Postemergence, visual injury after approximately 10 d, 0 to 100 scale where 0 is no effect and 100 is complete control, read-out: Plant response rating, Galium); 90% in [7] (Postemergence, visual injury after approximately 10 d, 0 to 100 scale where 0 is no effect and 100 is complete control, read-out: Plant response rating, Barnyardgrass); 0% in [8] (Postemergence, visual injury after approximately 10 d, 0 to 100 scale where 0 is no effect and 100 is complete control, read-out: Plant response rating, Ragweed). In addition, the pest or weed control at 500 g/ha in the assay on Kochia (Kochia scoparia) (preemergence, visual injury rating about 10 d after treatment, 0 to 100 scale (0 no effect, 100 complete control), read-out: Kochia plant response rating) is 40%; in [1] (preemergence, visual injury rating about 10 d after treatment, 0 to 100 scale (0 no effect, 100 complete control), read-out: Barnyardgrass plant response rating), 90%; in assay [2] (preemergence, visual injury rating about 10 d after treatment, 0 to 100 scale (0 no effect, 100 complete control), read-out: Foxtail, Giant plant response rating), 90%; in assay [3] (preemergence, visual injury rating about 10 d after treatment, 0 to 100 scale (0 no effect, 100 complete control), read-out: Pigweed plant response rating), 50%; in assay [4] (preemergence, visual injury rating about 10 d after treatment, 0 to 100 scale (0 no effect, 100 complete control), read-out: Ragweed plant response rating) it was 30%; in [5] (preemergence, visual injury rating about 10 d after treatment, 0 to 100 scale (0 no effect, 100 complete control), read-out: Ryegrass, Italian plant response rating) it was 90%. The pest or weed control at 500 g/ha in assay [6] (500 g ai/ha, postemergence, visual injury, 0 to 100 scale (0 no effect, 100 complete control), approx. 10 d, read-out: Plant response rating, Galium) is 60%; in assay [7] (500 g ai/ha, postemergence, visual injury, 0 to 100 scale (0 no effect, 100 complete control), approx. 10 d, read-out: Plant response rating, Barnyardgrass), 90%; in [8] (500 g ai/ha, postemergence, visual injury, 0 to 100 scale (0 no effect, 100 complete control), approx. 10 d, read-out: Plant response rating, Ragweed) it was 0%. In addition, the Corn plant response rating (crop injury, 0 = no effect, 100 = complete kill) at 125 g/ha in the assay with corn (Zea mays) (125 g ai/ha, Postemergence, visual injury after approximately 10 d, 0 to 100 scale where 0 is no effect and 100 is complete control) came out at 70%. The same molecule came in with a Corn plant response rating (crop injury, 0 = no effect, 100 = complete kill) at 500 g/ha in the assay with corn (Zea mays) (500 g ai/ha, postemergence, visual injury, 0 to 100 scale (0 no effect, 100 complete control), approx. 10 d) of 70%. Besides, the pest or weed control at 250 g/ha in [9] (setting [12]) turned out to be 40%; in assay [10] (setting [12]) it was 70%; with rice (Oryra sativa) (setting [12]), 0%; in assay [11] (setting [12]), 0%.

For `COc1c(F)ccc([C@H]2CN(C)C(=O)[C@@H]2C(=O)Nc2ccccc2F)c1Cl` [Compound 892], the pest or weed control at 125 g/ha in the assay with Kochia (Kochia scoparia) (preemergence, 0 to 100 scale where 0 is no effect and 100 is complete control, read-out: Kochia plant response rating) amounted to 70%; in assay [1] (preemergence, 0 to 100 scale where 0 is no effect and 100 is complete control, read-out: Barnyardgrass plant response rating) it was 100%; in assay [2] (preemergence, 0 to 100 scale where 0 is no effect and 100 is complete control, read-out: Foxtail, Giant plant response rating), 100%; in assay [3] (preemergence, 0 to 100 scale where 0 is no effect and 100 is complete control, read-out: Pigweed plant response rating), 0%; in [4] (preemergence, 0 to 100 scale where 0 is no effect and 100 is complete control, read-out: Ragweed plant response rating), 20%; in [5] (preemergence, 0 to 100 scale where 0 is no effect and 100 is complete control, read-out: Ryegrass, Italian plant response rating), 30%. In addition, the pest or weed control at 125 g/ha in [6] (postemergence, visual injury rating after approximately 10 d, read-out: Galium plant response rating (0 to 100 scale, 0 no effect, 100 complete control)) stood at 20%; in assay [7] (postemergence, visual injury rating after approximately 10 d, read-out: Barnyardgrass plant response rating (0 to 100 scale, 0 no effect, 100 complete control)), 90%; in [8] (postemergence, visual injury rating after approximately 10 d, read-out: Ragweed plant response rating (0 to 100 scale, 0 no effect, 100 complete control)), 0%. Besides, the pest or weed control at 500 g/ha was 90% in the assay on Kochia (Kochia scoparia) (Preemergence, visual injury vs untreated controls after approximately 10 d, read-out: Kochia plant response rating (0 to 100 scale where 0 is no effect and 100 is complete control)); 100% in [1] (Preemergence, visual injury vs untreated controls after approximately 10 d, read-out: Barnyardgrass plant response rating (0 to 100 scale where 0 is no effect and 100 is complete control)); 100% in assay [2] (Preemergence, visual injury vs untreated controls after approximately 10 d, read-out: Foxtail, Giant plant response rating (0 to 100 scale where 0 is no effect and 100 is complete control)); 40% in [3] (Preemergence, visual injury vs untreated controls after approximately 10 d, read-out: Pigweed plant response rating (0 to 100 scale where 0 is no effect and 100 is complete control)); 50% in [4] (Preemergence, visual injury vs untreated controls after approximately 10 d, read-out: Ragweed plant response rating (0 to 100 scale where 0 is no effect and 100 is complete control)); 90% in assay [5] (Preemergence, visual injury vs untreated controls after approximately 10 d, read-out: Ryegrass, Italian plant response rating (0 to 100 scale where 0 is no effect and 100 is complete control)). The plant injury at 125 g/ha in the assay with corn (Zea mays) (125 g ai/ha, postemergence, visual injury rating after approximately 10 d, read-out: Corn plant response rating (0 to 100 scale, 0 no effect, 100 complete control)) is 0%. Further, the pest or weed control at 250 g/ha in assay [9] (setting [13]) came to 65%; in [10] (setting [13]), 80%; with rice (Oryra sativa) (setting [13]), 0%; in [11] (setting [13]), 0%.
